Assay results: US10457710B2, “Antimicrobial peptides, their variants and uses” (priority 2015, dated 2019)
Where a SMILES comes first, the peptide text is derived from it. [ ]: non-standard residue; d: D form.

Experiments:
Format in all cases: cell-based
C. glabrata = assay: MIC, clinical yeast strains
Experimental: (§1) Minimum inhibition concetrations (MICs) were determined against Escherichia coli (ATCC 25922), Staphylococcus aureus (ATCC 25923), Klebsiella pneumoniae (ATCC 10031) and Pseudomonas aeruginosa (ATCC 27853). Also clinical strains of E. coli, K. pneumoniae, E. cloacae, P. aeruginosa, Serratia marcescens, Proteus mirabilis, S. pneumoniae, Acinetobacter baumannii, A. johnsonii and S. aureus were used for MICs assays. Additionally, clinical strains of yeast including Candida albicans, C. glabrata, C. parapsilosis and C. quillermondiae were used. The susceptibility of these microorganisms to Chain peptides were determined using micro broth dilution assay. Colonies of the respective microorganism from Muller Hinton (MH) agar plates incubated overnight were suspended in MH broth media and final concentration of microorganism was adjusted to 5.0×10^5 cfu/ml. An aliquot of 10 μl of each Chain peptide, or gentamicin, tetracycline as reference antibiotics were added in differing concentrations along with 90 μl of bacterial suspension to 96 well polypropylene plates and incubated at 37° C. for 20 to 24 hours. Concentrations of Chain peptides and reference antibiotics ranged from 0.125 to 128 μg/ml and the MICs were recorded as the lowest concentration with no visual growth of bacteria. Similarly, antifungal MICs were tested in Potato dextrose broth.
(§2) Clinical strains of yeasts including Candida albicans, C. glabrata, C. parapsilosis and C. quillermondiae were also tested with the 12 Chain peptides. The minimum inhibitory concentration (MICs) varied between these peptides and are presented in Tables 4a, 4b, 4c and 5a, 5b, 5c. Peptides Chain 105, 201 and 308 are broad spectrum antimicrobials with MICs between 0.5-32 μg/ml against all the bacteria and yeasts tested, except Serratia marcescens and Proteus mirabilis, against which the MICs were between 64-128 μg/ml. Peptide Chain 306 has narrow spectrum activity against E. coli at 1 μg/ml and for the rest of the bacterial strains at >32 μg/ml (FIG. 10c).

C. parapsilosis = assay: MIC, clinical yeast strains
Experimental: as §1, §2

Candida albicans = assay: MIC, clinical yeast strains
Experimental: as §1, §2

C. quillermondiae = assay: MIC, clinical yeast strains; parameters: Minimum inhibitory concentration: unit: μg/ml; settings: C. quillermondiae clinical yeast strain 1
Experimental: as §1, §2

[1] = test system: clinical strains of E. cloacae; assay: MIC, microdilution, clinical strains; settings: 0.02% BSA, 0.2% acetic acid
Experimental: as §1, §2

[2] = test system: clinical strains of E. coli; assay: MIC, microdilution, clinical strains; settings: microdilution, Muller Hinton broth-cation adjusted, 0.02% BSA, 0.2% acetic acid
Experimental: as §1, §2

[3] = test system: clinical strains of K. pneumoniae; assay: MIC, microdilution, clinical strains; settings: 0.02% BSA, 0.2% acetic acid
Experimental: as §1, §2

[4] = test system: clinical strains of P. aeruginosa; assay: MIC, microdilution, clinical strains; settings: 0.02% BSA, 0.2% acetic acid
Experimental: as §1, §2

[5] = test system: clinical strains of Proteus mirabilis; assay: MIC, microdilution, clinical strains; settings: 0.02% BSA, 0.2% acetic acid
Experimental: as §1, §2

[6] = test system: clinical strains of S. aureus; assay: MIC, microdilution, clinical strains; settings: 0.02% BSA, 0.2% acetic acid
Experimental: as §1, §2

[7] = test system: clinical strains of S. pneumoniae; assay: MIC, microdilution, clinical strains; settings: 0.02% BSA, 0.2% acetic acid
Experimental: as §1, §2

[8] = test system: clinical strains of Serratia marcescens; assay: MIC, microdilution, clinical strains; settings: 0.02% BSA, 0.2% acetic acid
Experimental: as §1, §2

[9] = C. glabrata clinical yeast strain 1
[10] = C. glabrata clinical yeast strain 2
[11] = C. glabrata clinical yeast strain 3
[12] = C. glabrata clinical yeast strain 4
[13] = C. parapsilosis clinical yeast strain 1
[14] = C. parapsilosis clinical yeast strain 2
[15] = C. parapsilosis clinical yeast strain 3
[16] = C. parapsilosis clinical yeast strain 4
[17] = Candida albicans clinical yeast strain 1
[18] = Candida albicans clinical yeast strain 2
[19] = Candida albicans clinical yeast strain 3
[20] = Candida albicans clinical yeast strain 4
[21] = Candida albicans clinical yeast strain 5

For `C[C@@H]1[C@H](O)[C@@H](C)/C=C/C=C/C=C/C=C/C=C/C=C/C=C/[C@H](O[C@@H]2O[C@H](C)[C@@H](O)[C@H](N)[C@@H]2O)C[C@@H]2O[C@](O)(C[C@@H](O)C[C@@H](O)[C@H](O)CC[C@@H](O)C[C@@H](O)CC(=O)O[C@H]1C)C[C@H](O)[C@H]2C(=O)O` [Amphotericin B], the Minimum inhibitory concentration (C. glabrata; [9]) was 4, the Minimum inhibitory concentration (C. glabrata; [10]) was 4 and the Minimum inhibitory concentration (C. glabrata; [11]) was 2. For the same molecule, the Minimum inhibitory concentration (C. glabrata; [12]) was 4, the Minimum inhibitory concentration (C. parapsilosis; [13]) was 2 and the Minimum inhibitory concentration (C. parapsilosis; [14]) was 2. The Minimum inhibitory concentration (C. parapsilosis; [15]) was 2, the Minimum inhibitory concentration (C. parapsilosis; [16]) was 2 and the Minimum inhibitory concentration (Candida albicans; [17]) was 2. For the same molecule, the Minimum inhibitory concentration (Candida albicans; [18]) was 0.5, the Minimum inhibitory concentration (Candida albicans; [19]) was 2 and the Minimum inhibitory concentration (Candida albicans; [20]) was 2. It also gave a Minimum inhibitory concentration (Candida albicans; [21]) of 2 and a Minimum inhibitory concentration (C. quillermondiae) of 2.
Molecule `CC[C@@H](C)[C@@H](N)C(=O)N[C@H](Cc1c[nH]c2ccccc12)C(=O)N[C@H](CCCCN)C(=O)N[C@H](CCCNC(=N)N)C(=O)N[C@H](Cc1ccccc1)C(=O)N[C@H](CCCNC(=N)N)C(=O)N[C@H](CC(C)C)C(=O)N[C@H](Cc1ccccc1)C(=O)N[C@H](CCCCN)C(=O)N[C@H](CCCCN)C(=O)N[C@H](Cc1c[nH]c2ccccc12)C(=O)O` [Chain304D] (H-[dI][dW][dK][dR][dF][dR][dL][dF][dK][dK][dW]-OH) has a Minimum inhibitory concentration ([1]; Enterobacter cloacae strain 1, Muller Hinton broth-cation adjusted) of 64, a Minimum inhibitory concentration ([1]; Enterobacter cloacae strain 2, Muller Hinton broth-cation adjusted) of 64 and a Minimum inhibitory concentration ([1]; Enterobacter cloacae strain 3, Muller Hinton broth-cation adjusted) of 128. It also gave a Minimum inhibitory concentration ([1]; Enterobacter cloacae strain 4, Muller Hinton broth-cation adjusted) of 128, a Minimum inhibitory concentration ([1]; Enterobacter cloacae strain 5, Muller Hinton broth-cation adjusted) of 32 and a Minimum inhibitory concentration ([2]; Escherichia coli strain 1) of 1. It also gave a Minimum inhibitory concentration ([2]; Escherichia coli strain 2) of 16, a Minimum inhibitory concentration ([2]; Escherichia coli strain 3) of 16 and a Minimum inhibitory concentration ([2]; Escherichia coli strain 4) of 32. For the same molecule, the Minimum inhibitory concentration ([2]; Escherichia coli strain 5) was 32, the Minimum inhibitory concentration ([3]; Klebsiella pneumoniae strain 1, Muller Hinton broth-cation adjusted) was greater than 128 and the Minimum inhibitory concentration ([3]; Klebsiella pneumoniae strain 2, Muller Hinton broth-cation adjusted) was greater than 128. It also gave a Minimum inhibitory concentration ([3]; Klebsiella pneumoniae strain 3, Muller Hinton broth-cation adjusted) greater than 128, a Minimum inhibitory concentration ([3]; Klebsiella pneumoniae strain 4, Muller Hinton broth-cation adjusted) greater than 128 and a Minimum inhibitory concentration ([3]; Klebsiella pneumoniae strain 5, Muller Hinton broth-cation adjusted) of 64. It also gave a Minimum inhibitory concentration ([4]; Pseudomonas aeruginosa strain 1, Muller Hinton broth-cation adjusted) of 32, a Minimum inhibitory concentration ([4]; Pseudomonas aeruginosa strain 2, Muller Hinton broth-cation adjusted) of 64 and a Minimum inhibitory concentration ([4]; Pseudomonas aeruginosa strain 3, Muller Hinton broth-cation adjusted) of 64. It also gave a Minimum inhibitory concentration ([4]; Pseudomonas aeruginosa strain 4, Muller Hinton broth-cation adjusted) of 64, a Minimum inhibitory concentration ([4]; Pseudomonas aeruginosa strain 5, Muller Hinton broth-cation adjusted) of 16 and a Minimum inhibitory concentration ([5]; Proteus mirabilis strain 1, Muller Hinton broth-cation adjusted) greater than 128. For the same molecule, the Minimum inhibitory concentration ([5]; Proteus mirabilis strain 2, Muller Hinton broth-cation adjusted) was greater than 128, the Minimum inhibitory concentration ([5]; Proteus mirabilis strain 3, Muller Hinton broth-cation adjusted) was greater than 128 and the Minimum inhibitory concentration ([5]; Proteus mirabilis strain 4, Muller Hinton broth-cation adjusted) was greater than 128. It also gave a Minimum inhibitory concentration ([5]; Proteus mirabilis strain 5, Muller Hinton broth-cation adjusted) greater than 128, a Minimum inhibitory concentration ([6]; Staphylococcus aureus strain 1, Muller Hinton broth-cation adjusted) of 32 and a Minimum inhibitory concentration ([6]; Staphylococcus aureus strain 2, Muller Hinton broth-cation adjusted) of 32. The Minimum inhibitory concentration ([6]; Staphylococcus aureus strain 3, Muller Hinton broth-cation adjusted) was 16, the Minimum inhibitory concentration ([6]; Staphylococcus aureus strain 4, Muller Hinton broth-cation adjusted) was 16 and the Minimum inhibitory concentration ([6]; Staphylococcus aureus strain 5, Muller Hinton broth-cation adjusted) was 16. For the same molecule, the Minimum inhibitory concentration ([7]; Streptococcus pneumoniae strain 1, Muller Hinton broth-cation adjusted) was 128, the Minimum inhibitory concentration ([7]; Streptococcus pneumoniae strain 2, Muller Hinton broth-cation adjusted) was 128 and the Minimum inhibitory concentration ([7]; Streptococcus pneumoniae strain 3, Muller Hinton broth-cation adjusted) was 128. For the same molecule, the Minimum inhibitory concentration ([7]; Streptococcus pneumoniae strain 4, Muller Hinton broth-cation adjusted) was 128, the Minimum inhibitory concentration ([7]; Streptococcus pneumoniae strain 5, Muller Hinton broth-cation adjusted) was 64 and the Minimum inhibitory concentration ([8]; Serratia marcescens strain 1, Muller Hinton broth-cation adjusted) was greater than 128. The Minimum inhibitory concentration ([8]; Serratia marcescens strain 2, Muller Hinton broth-cation adjusted) was greater than 128, the Minimum inhibitory concentration ([8]; Serratia marcescens strain 3, Muller Hinton broth-cation adjusted) was greater than 128 and the Minimum inhibitory concentration ([8]; Serratia marcescens strain 4, Muller Hinton broth-cation adjusted) was greater than 128. The Minimum inhibitory concentration ([8]; Serratia marcescens strain 5, Muller Hinton broth-cation adjusted) was greater than 128, the Minimum inhibitory concentration (C. glabrata; [9]) was 16 and the Minimum inhibitory concentration (C. glabrata; [10]) was 16. It also gave a Minimum inhibitory concentration (C. glabrata; [11]) of 8, a Minimum inhibitory concentration (C. glabrata; [12]) of 64 and a Minimum inhibitory concentration (C. parapsilosis; [13]) of 64. For the same molecule, the Minimum inhibitory concentration (C. parapsilosis; [14]) was 64, the Minimum inhibitory concentration (C. parapsilosis; [15]) was 32 and the Minimum inhibitory concentration (C. parapsilosis; [16]) was 16. It also gave a Minimum inhibitory concentration (Candida albicans; [17]) of 16, a Minimum inhibitory concentration (Candida albicans; [18]) of 16 and a Minimum inhibitory concentration (Candida albicans; [19]) of 16. The Minimum inhibitory concentration (Candida albicans; [20]) was 16, the Minimum inhibitory concentration (Candida albicans; [21]) was 32 and the Minimum inhibitory concentration (C. quillermondiae) was 16.
